Source: patent US7273880B2, “Selective NPY (Y5) antagonists” (H. Lunbeck A/S, priority 1999, dated 2007)
Structures can show the parent of a compound that is named as a salt.

| SMILES | melting point |
| --- | --- |
| O=S(=O)(NC[C@H]1CC[C@H](Nc2nc3c(s2)CCCc2ccc(F)cc2-3)CC1)c1cccnc1 (as salt: salt) [Example 59, trans-1-Aza-9-fluoro-4,5-dihydro-2-(4-(3-pyridyl)-sulfonylaminomethyl)cyclohexylamino-3-thia-benzo[e]-azulene] | 127 to 129 °C |
| O=S(=O)(CC(F)(F)F)NCCCCNc1nc2c(s1)CCCc1ccc(F)cc1-2 (as salt: TFA) [Example 39, 1-Aza-9-fluoro-4,5-dihydro-2-(4-(2,2,2-trifluoroethyl)-sulfonylamino)butylamino-3-thia-benzo[e]azulene] | 140 to 141 °C |
| O=S(=O)(NCCCCCNc1nc2c(s1)CCCc1ccc(F)cc1-2)c1cccnc1 (as salt: salt) [Example 55, 1-Aza-9-fluoro-4,5-dihydro-2-(5-(3-pyridyl)sulfonyl-amino)pentylamino-3-thia-benzo[e]azulene] | 84 to 86 °C |
| COCC(=O)NC[C@H]1CC[C@H](Nc2nc3c(s2)CCCc2ccc(F)cc2-3)CC1 (as salt: HCl) [Example 80, N1-({4-[(9-fluoro-5,6-dihydro-4H-benzo[6,7]-cyclohepta-[d][1,3]thiazol-2-yl)amino]cyclohexyl}-methyl)-2-methoxyacetamide] | 63 to 65 °C |
| COc1ccc2c(c1)CCCc1sc(NC[C@H]3CC[C@H](NS(C)(=O)=O)CC3)nc1-2 (as salt: salt) [Example 71, trans-1-Aza-4,5-dihydro-8-methoxy-2-(4-methylsulfonyl-amino)cyclohexylmethylamino-3-thia-benzo[e]azulene] | 94 to 97 °C |
| CS(=O)(=O)NCC1CCC(Nc2nc3c(s2)COc2ccccc2-3)CC1 (stereo not shown) (as salt: salt) [Example 70, 2-(4-Methylsulfonylaminomethyl)cyclohexylamino-4H-chromeno[4,3-d]thiazole] | 140 to 144 °C |
| COc1ccc2c(c1)CCCc1sc(N[C@H]3CC[C@H](CNS(=O)(=O)C(C)C)CC3)nc1-2 (as salt: salt) [Example 73, trans-1-Aza-4,5-dihydro-2-(4-isopropylsulfonyl-aminomethyl)-cyclohexylamino-8-methoxy-3-thia-benzo[e]-azulene] | 87 to 89 °C |
| COc1ccc(C)cc1S(=O)(=O)NC[C@H]1CC[C@H](Nc2nc3c(s2)CCOc2ccccc2-3)CC1 (as salt: HCl) [Example 48, trans-1-Aza-4,5-dihydro-2-{4-(2-methoxy-5-methyl)phenyl-sulfonylaminomethyl}cyclohexylamino-6-oxa-3-thia-benzo[e]azulene] | 100 to 105 °C (dec.) |
| CCCN(C=O)[C@H]1CC[C@H](CNc2nc3c(s2)CCOc2ccccc2-3)CC1 (as salt: HCl) [Example 88, N-{4-[(4,5-Dihydrobenzo[2,3]oxepino[4,5-d][1,3]-thiazol-2-ylamino)methyl]cyclohexyl}-N-propyl-formamide] | 195 to 197 °C |
| COc1ccc2c(c1)-c1nc(NC[C@H]3CC[C@H](NS(C)(=O)=O)CC3)sc1CCO2 (as salt: HCl) [Example 63, trans-1-Aza-4,5-dihydro-9-methoxy-2-{4-methylsulfonyl-amino}cyclohexylmethylamino-6-oxa-3-thia-benzo[e]azulene] | 200 to 215 °C |
| COCC(=O)N[C@H]1CC[C@H](CNc2nc3c(s2)CCOc2ccccc2-3)CC1 (as salt: HCl) [Example 84, N1-{4-[(4,5-dihydrobenzo[2,3]oxepino[4,5-d][1,3]thiazol-2-ylamino)methyl]cyclohexyl}-2-methoxyacetamide] | 234 to 237 °C |
| O=S(=O)(NCCCCNc1nc2c(s1)CCCc1ccc(F)cc1-2)c1cccnc1 (as salt: salt) [Example 56, 1-Aza-9-fluoro-4,5-dihydro-2-(4-(3-pyridyl)sulfonyl-amino)butylamino-3-thia-benzo[e]azulene] | 101 to 103 °C |
| COCC(=O)NCc1ccc(Nc2nc3c(s2)CCCc2ccc(F)cc2-3)cc1 (as salt: HCl) [Example 89, N1-{4-[(9-fluoro-5,6-dihydro-4H-benzo[6,7]cyclohepta-[d][1,3]thiazol-2-yl)amino]benzyl}-2-methoxyacetamide] | 175 to 178 °C |
| CCOC(=O)N[C@H]1CC[C@H](CNc2nc3c(s2)CCCc2ccc(F)cc2-3)CC1 (as salt: hydrochloride) [Example 68, trans-N2-(4-Ethoxycarbonylamino)cyclohexylmethyl-9-fluoro-5,6-dihydro-4H-benzo[6,7]cyclohepta[d][1,3]-thiazol-2-amine hydrochloride] | 94 to 97 °C |
| CC(C)N(C=O)C[C@H]1CC[C@H](Nc2nc3c(s2)CCCc2ccc(F)cc2-3)CC1 (as salt: salt) [Example 83, trans-1-Aza-9-fluoro-4,5-dihydro-2-(4-(N-isopropyl-formamido)methyl)cyclohexylamino-3-thia-benzo[e]-azulene] | 106 to 107 °C |
| O=S(=O)(N[C@H]1CC[C@H](Nc2nc3c(s2)CCCc2ccc(F)cc2-3)CC1)c1cccnc1 (as salt: salt) [Example 54, trans-1-Aza-9-fluoro-4,5-dihydro-2-(4-(3-pyridyl-sulfonylamino)cyclohexyl)amino-3-thia-benzo[e]azulene] | 165 to 167 °C |
| O=C1OCCN1C[C@H]1CC[C@H](Nc2nc3c(s2)CCCc2ccc(F)cc2-3)CC1 (as salt: HCl) [Example 79, 3-({4-[(9-fluoro-5,6-dihydro-4H-benzo[6,7]cyclohepta-[d][1,3]thiazol-2-yl)amino]cyclohexyl}methyl)-1,3-oxazolan-2-one] | 223 to 225 °C |
| CCN(C=O)[C@H]1CC[C@H](CNc2nc3c(s2)CCOc2ccccc2-3)CC1 (as salt: HCl) [Example 87, trans-1-Aza-2-(4-(n-(ethyl) formamido)cyclohexyl)methyl-amino-4,5-dihydro-6-oxa-3-thia-benzo[e]azulene] | 210 to 213 °C |
| CC(C)S(=O)(=O)NCCOCCNc1nc2c(s1)CCCc1ccc(F)cc1-2 (as salt: HCl) [Example 69, 1-Aza-9-fluoro-4,5-dihydro-2-(2-(2-isopropyl-sulfonylamino)-ethoxy)ethylamino-3-thia-benzo[e]-azulene] | 50 to 55 °C |
| COc1cccc2c1OCCc1sc(NC[C@H]3CC[C@H](NS(=O)(=O)N(C)C)CC3)nc1-2 (as salt: HCl) [Example 66, trans-1-Aza-4,5-dihydro-7-methoxy-2-{4-dimethylamino-sulfonylamino}cyclohexylmethylamino-6-oxa-3-thia-benzo[e]azulene] | 206 to 208 °C |
| COc1ccc(C)cc1S(=O)(=O)NCCOCCNc1nc2c(s1)CCCc1ccc(F)cc1-2 (as salt: HCl) [Example 58, 1-Aza-9-fluoro-4,5-dihydro-2-{2-[2-(2-methoxy-5-methylphenyl)sulfonylamino]ethoxy}ethylamino-3-thia-benzo[e]azulene] | 56 to 60 °C |
| O=S(=O)(NCCCCCNc1nc2c(s1)CCCc1ccc(F)cc1-2)c1ccccc1F (as salt: HCl) [Example 3, 1-Aza-9-fluoro-2-(5-(2-fluorophenyl)sulfonylamino)-pentylamino-4,5-dihydro-3-thia-benzo[e]azulene] | 55 to 57 °C |
